Measured values from patent US20250197384A1, “AZOLE COMPOUND AND ANTIFUNGAL AGENT” (NIHON NOHYAKU CO., LTD., priority 2022, published 2025).
Converted amounts (≈) assume the structure as drawn. Each block holds one compound with its values, some of them ahead of it.

How the values were obtained:
Type in all cases: cell-based
[1] = test system: Aspergillus fumigatus TIMM0063; assay: In vitro anti-Aspergillus activity test; conditions: for minimum inhibitory concentration against various fungi (MIC) A. fumigatus: Table 22, 35° C. for 48 hr, alamar Blue, minimum concentration showing 80% or more inhibition; for A. fumigatus (MIC): 80% or more inhibition, unit inferred
Description: Aspergillus fumigatus TIMM0063 was used as the strain. The test fungi were cultured on a Potato dextrose agar slant medium at 35° C. for 4 days, and then sterilized saline containing 0.1% (v/v) Tween 80 was added to release the conidia. This conidial suspension was filtered through sterile gauze, and the number of conidia was counted using a hemocytometer. The same solution was adjusted to a conidial concentration of 1×10^6 conidia/mL, and this was used as an inoculum. Each compound was dissolved in dimethyl sulfoxide to a predetermined concentration, and diluted 50-fold with 0.165 M MOPS buffered RPMI 1640 liquid medium, and each diluted solution was dispensed into a 96-well microplate by each 100 μL. The inoculum was diluted 50-fold with 0.165 M MOPS buffered RPMI 1640 liquid medium containing 20% alamar Blue™, and the diluted solution was inoculated into the 96-well microplate containing the compound by each 100 μL (final inoculum amount 1.0×10^4 conidia/mL). After static culture at 35° C. for 48 hr, the degree of color development of the alamar Blue™ was measured using a microplate reader (O.D. 570-595 nm), and the minimum concentration showing 80% or more inhibition was defined as the minimum inhibitory concentration (MIC).

[2] = test system: Trichophyton mentagrophytes TIMM2789; assay: In vitro anti-tinea fungus activity test (T. mentagrophytes); conditions: Table 22, 27° C. for 3 days, alamar Blue, minimum concentration showing 80% or more inhibition
Description: (§1) Trichophyton rubrum NBRC6203 and Trichophyton mentagrophytes TIMM2789 were used as the strains. The test fungi were cultured on a Sabouraud dextrose agar slant medium at 27° C. for 10-13 days, and then suspended in sterilized saline. The number of cells in this suspension was counted using a hemocytometer, and the same suspension was adjusted to a cell concentration of 2×10^6 conidia/mL, and this was used as an inoculum. Each compound was dissolved in dimethyl sulfoxide to a predetermined concentration, and diluted 50-fold with 0.165 M MOPS buffered RPMI 1640 liquid medium, and each diluted solution was dispensed into a 96-well microplate by each 100 μL. The inoculum was diluted 50-fold with 0.165 M MOPS buffered RPMI 1640 liquid medium containing 20% alamar Blue™, and the diluted solution was inoculated into the 96-well microplate containing the compound by each 100 μL (final inoculum amount 2×10^4 conidia/mL). After static culture at 27° C. for 3 days (Trichophyton mentagrophytes) or for 5 days (Trichophyton rubrum), the degree of color development of the alamar Blue™ was measured using a microplate reader (O.D. 570-595 nm), and the minimum concentration showing 80% or more inhibition was defined as the minimum inhibitory concentration (MIC).

[3] = test system: Trichophyton rubrum NBRC6203; assay: In vitro anti-tinea fungus activity test (T. rubrum); conditions: Table 22, 27° C. for 5 days, alamar Blue, minimum concentration showing 80% or more inhibition
Description: as §1

[4] = test system: Candida albicans NBRC1270; assay: In vitro anti-Candida activity test; conditions: for minimum inhibitory concentration against various fungi (MIC) C. albicans: Table 22, 35° C. for 24 hr, alamar Blue, minimum concentration showing 80% or more inhibition; for C. albicans (MIC): 80% or more inhibition, unit inferred
Description: Candida albicans NBRC1270 was used as the strain. The test fungi were cultured on a Sabouraud dextrose agar slant medium at 35° C. for 24 hr, and then suspended in sterilized saline. The number of cells in this suspension was counted using a hemocytometer, and the same suspension was adjusted to a cell concentration of 1.5×10^5 cells/mL, and this was used as an inoculum. Each compound was dissolved in dimethyl sulfoxide to a predetermined concentration, and diluted 50-fold with 0.165 M MOPS buffered RPMI 1640 liquid medium, and each diluted solution was dispensed into a 96-well microplate by each 100 μL. The inoculum was diluted 50-fold with 0.165 M MOPS buffered RPMI 1640 liquid medium containing 20% alamar Blue™, and the diluted solution was inoculated into the 96-well microplate containing the compound by each 100 μL (final inoculum amount 1.5×10^3 cells/mL). After static culture at 35° C. for 24 hr, the degree of color development of the alamar Blue™ was measured using a microplate reader (O.D. 570-595 nm), and the minimum concentration showing 80% or more inhibition was defined as the minimum inhibitory concentration (MIC).

SMILES: CC(C)(C)OC(=O)Nc1cnc(C2CS/C(=C(/C#N)n3cncn3)S2)c(Cl)c1 (stereo not drawn) [compound 12]
minimum inhibitory concentration against various fungi (MIC) A. fumigatus [1]: 100 ng/mL (≈ 0.229 µM)
minimum inhibitory concentration against various fungi (MIC) T. mentagrophytes [2]: 0.1 µg/mL (≈ 0.229 µM)
minimum inhibitory concentration against various fungi (MIC) T. rubrum [3]: 10 ng/mL (≈ 0.0229 µM)
minimum inhibitory concentration against various fungi (MIC) C. albicans [4]: 0.01 µg/mL (≈ 0.0229 µM)

SMILES: CCOC(=O)Nc1cnc(C2CS/C(=C(/C#N)n3ccnc3)S2)c(Cl)c1 (stereo not drawn) [compound 16]
minimum inhibitory concentration against various fungi (MIC) A. fumigatus [1]: 5 ng/mL (≈ 0.0123 µM)
minimum inhibitory concentration against various fungi (MIC) T. mentagrophytes [2]: 0.01 µg/mL (≈ 0.0245 µM)
minimum inhibitory concentration against various fungi (MIC) T. rubrum [3]: ≤1 ng/mL
minimum inhibitory concentration against various fungi (MIC) C. albicans [4]: 0.0025 µg/mL (≈ 0.00613 µM)

SMILES: CO/N=C/c1cnc(C2CS/C(=C(/C#N)n3cncn3)S2)c(Cl)c1 (stereo not drawn) [compound 19]
minimum inhibitory concentration against various fungi (MIC) A. fumigatus [1]: 5 ng/mL (≈ 0.0132 µM)
minimum inhibitory concentration against various fungi (MIC) T. mentagrophytes [2]: 0.01 µg/mL (≈ 0.0264 µM)
minimum inhibitory concentration against various fungi (MIC) T. rubrum [3]: ≤1 ng/mL
minimum inhibitory concentration against various fungi (MIC) C. albicans [4]: 0.01 µg/mL (≈ 0.0264 µM)

SMILES: CCOC(=O)Nc1cnc([C@@H]2CS/C(=C(/C#N)n3cncn3)S2)c(Cl)c1 [compound 79]
A. fumigatus (MIC) ([1]; Table 23, 35° C. for 48 hr): 5 ng/mL
C. albicans (MIC) ([4]; Table 23, 35° C. for 24 hr): 5 ng/mL

SMILES: N#C/C(=C1/SC[C@@H](c2ncc(NC(=O)OCC3CC3)cc2Cl)S1)n1cncn1 [compound 92]
A. fumigatus (MIC) ([1]; Table 23, 35° C. for 48 hr): 2.5 ng/mL
C. albicans (MIC) ([4]; Table 23, 35° C. for 24 hr): 0.63 ng/mL

SMILES: CCCOC(=O)Nc1cnc([C@@H]2CS/C(=C(/C#N)n3cncn3)S2)c(Cl)c1 [compound 94]
A. fumigatus (MIC) ([1]; Table 23, 35° C. for 48 hr): 2.5 ng/mL
C. albicans (MIC) ([4]; Table 23, 35° C. for 24 hr): 2.5 ng/mL

SMILES: N#C/C(=C1/SC[C@@H](c2ncc(NC(=O)OCC3CC3(F)F)cc2Cl)S1)n1cncn1 (stereo partly drawn) [compound 130]
A. fumigatus (MIC) ([1]; Table 24, 35° C. for 48 hr): 5 ng/mL
C. albicans (MIC) ([4]; Table 24, 35° C. for 24 hr): 2.5 ng/mL

SMILES: N#C/C(=C1/SC[C@@H](c2ncc(NC(=O)OCC3(F)CC3)cc2Cl)S1)n1cncn1 [compound 155]
A. fumigatus (MIC) ([1]; Table 25, 35° C. for 48 hr): 10 ng/mL
C. albicans (MIC) ([4]; Table 25, 35° C. for 24 hr): 2.5 ng/mL

The remaining lines, values ahead:

A. fumigatus (MIC) ([1]; Table 23, 35° C. for 48 hr): 2.5 ng/mL
C. albicans (MIC) ([4]; Table 23, 35° C. for 24 hr): 0.63 ng/mL
SMILES: N#C/C(=C1/SC[C@@H](c2ncc(NC(=O)OCc3ccccc3)cc2Cl)S1)n1cncn1 [compound 100]

A. fumigatus (MIC) ([1]; Table 23, 35° C. for 48 hr): 5 ng/mL
C. albicans (MIC) ([4]; Table 23, 35° C. for 24 hr): 1.25 ng/mL
SMILES: N#C/C(=C1/SC[C@@H](c2ncc(NC(=O)OCc3ccccc3)cc2F)S1)n1cncn1 [compound 106]

A. fumigatus (MIC) ([1]; Table 23, 35° C. for 48 hr): 5 ng/mL
C. albicans (MIC) ([4]; Table 23, 35° C. for 24 hr): 10 ng/mL
SMILES: CCCOC(=O)Nc1cnc([C@@H]2CS/C(=C(/C#N)n3cncn3)S2)c(F)c1 [compound 110]

A. fumigatus (MIC) ([1]; Table 24, 35° C. for 48 hr): 10 ng/mL
C. albicans (MIC) ([4]; Table 24, 35° C. for 24 hr): 10 ng/mL
SMILES: N#C/C(=C1/SC[C@@H](c2ncc(NC(=O)OCC3CC3(F)F)cc2F)S1)n1cncn1 (stereo partly drawn) [compound 131]
